Values quoted from earlier work in patent US20120083452A1, “Topical Anesthetic Uses of Szeto-Schiller Peptides” (priority 2010, published 2012).
Square brackets hold non-standard residues; d marks the D form. Ends that are not written are not given here. Dmt = Cc1cc(O)cc(C)c1C[C@H](N)C(=O)O

Legend:
[1] = compared with SS-02
isolated mitochondria = conditions: for MPP+-induced inhibition of oxygen consumption: MPP+ (1-methyl-4-phenylpyridium)
LDL = conditions: compared with SS-02
mice = mice studies

Substance	scavenging H2O2 [1]	MPP+-induced inhibition of ATP production (isolated mitochondria)	MPP+-induced mitochondrial swelling (isolated mitochondria)	MPP+-induced inhibition of oxygen consumption (isolated mitochondria)	inhibiting LDL oxidation (LDL)	treatment of Parkinson's Disease (PD) or Amyotrophic Lateral Sclerosis (ALS) (mice)
D-Arg-2′,6′-Dmt-Lys-Phe-NH2 ([dR][Dmt]KF-NH2) [SS-31]	as effective as SS-02	prevented	prevented	prevented	as effective as SS-02	may be effective
Phe-D-Arg-Phe-Lys-NH2 (F[dR]FK-NH2; N-terminus assumed; SMILES N=C(N)NCCC[C@@H](NC(=O)[C@@H](N)Cc1ccccc1)C(=O)N[C@@H](Cc1ccccc1)C(=O)N[C@@H](CCCCN)C(N)=O) [SS-20]	eliminated the scavenging ability	prevented	prevented	prevented		may be effective
